From ChEMBL document CHEMBL3044786, “Synthesis and nematocidal activity of ascaridole derivatives against Meloidogyne incognita and Aphelenchoides besseyi” (J Pestic Sci, 2007)
≈ marks a conversion by molar mass, not a printed value.

Test system: Meloidogyne incognita
Experiment: Nematocidal activity against Meloidogyne incognita (root-knot nematode) assessed as mortality after 24 hr
Type: functional
Details: not given
C=C(C)[C@H]1C[C@@H]2OO[C@H]1C=C2C showed an LC50 of 23 µg/mL (≈ 138 µM).
Work on CC1=C[C@@H]2OO[C@H]1C[C@@H]2C(C)C yielded an LC50 of 51 µg/mL (≈ 303 µM).
In the case of C=C(C)[C@H]1C[C@@H]2OO[C@H]1C(OC(C)=O)=C2C, the LC50 is reported as 51 µg/mL (≈ 227 µM).
For CC(C)C12C=CC(C(=O)O)(CC1)OO2 (stereo not drawn), the LC50 was 2 µg/mL (≈ 10.1 µM).
CNC(=O)O/N=C(\SC)C(=O)N(C)C [OXAMYL] gave an LC50 of 0.07 µg/mL (≈ 0.319 µM).
For COC(=O)C12C=CC(C(C)C)(CC1)OO2 (stereo not drawn), the LC50 was 2 µg/mL (≈ 9.42 µM).
Molecule CC(C)C12C=CC(C)(CC1)OO2 (stereo not drawn) [ASCARIDOLE] has an LC50 of 52 µg/mL (≈ 309 µM).
C=C(C)[C@H]1C[C@H]2OO[C@@H]1C=C2C showed an LC50 of 12 µg/mL (≈ 72.2 µM).
With C=C(C)[C@H]1C[C@H]2OO[C@@H]1C(OC(C)=O)=C2C the LC50 was 50 µg/mL (≈ 223 µM).
CC1=C[C@H]2OO[C@@H]1C[C@@H]2C(C)C gave an LC50 of 25 µg/mL (≈ 149 µM).
Molecule CC(C)C12C=CC(CO)(CC1)OO2 (stereo not drawn) has an LC50 of 55 µg/mL (≈ 299 µM).

Test system: Aphelenchoides besseyi
Experiment: Nematocidal activity against Aphelenchoides besseyi assessed as mortality after 24 hr
Type: functional
Details: not given
C=C(C)[C@H]1C[C@@H]2OO[C@H]1C=C2C showed an LC50 of 50 µg/mL (≈ 301 µM).
For CC1=C[C@@H]2OO[C@H]1C[C@@H]2C(C)C, the LC50 was 110 µg/mL (≈ 654 µM).
Molecule C=C(C)[C@H]1C[C@@H]2OO[C@H]1C(OC(C)=O)=C2C has an LC50 of 306 µg/mL (≈ 1360 µM).
CC(C)C12C=CC(C(=O)O)(CC1)OO2 (stereo not drawn) showed an LC50 of 4 µg/mL (≈ 20.2 µM).
For CNC(=O)O/N=C(\SC)C(=O)N(C)C [OXAMYL], the LC50 was 0.1 µg/mL (≈ 0.456 µM).
COC(=O)C12C=CC(C(C)C)(CC1)OO2 (stereo not drawn) showed an LC50 of 2 µg/mL (≈ 9.42 µM).
Work on CC(C)C12C=CC(C)(CC1)OO2 (stereo not drawn) [ASCARIDOLE] yielded an LC50 of 365 µg/mL (≈ 2170 µM).
Molecule C=C(C)[C@H]1C[C@H]2OO[C@@H]1C=C2C has an LC50 of 21 µg/mL (≈ 126 µM).
Work on C=C(C)[C@H]1C[C@H]2OO[C@@H]1C(OC(C)=O)=C2C yielded an LC50 of 302 µg/mL (≈ 1350 µM).
With CC1=C[C@H]2OO[C@@H]1C[C@@H]2C(C)C the LC50 was 69 µg/mL (≈ 410 µM).
Molecule CC(C)C12C=CC(CO)(CC1)OO2 (stereo not drawn) has an LC50 of 402 µg/mL (≈ 2180 µM).

Test system: Meloidogyne incognita
Experiment: Nematocidal activity against Meloidogyne incognita (root-knot nematode) assessed as mortality at 100 ug/ml after 24 hr
Type: functional
Details: not given
In the case of C=C(C)[C@H]1C[C@@H]2OO[C@H]1C=C2C, the mortality at 100 µg/mL is reported as 100%.
Molecule CC1=C[C@@H]2OO[C@H]1C[C@@H]2C(C)C has a mortality at 100 µg/mL of 100%.
In the case of C=C(C)[C@H]1C[C@@H]2OO[C@H]1C(OC(C)=O)=C2C, the mortality at 100 µg/mL is reported as 100%.
Work on CC(C)C12C=CC(C(=O)O)(CC1)OO2 (stereo not drawn) yielded a mortality at 100 µg/mL of 100%.
COC(=O)C12C=CC(C(C)C)(CC1)OO2 (stereo not drawn) showed a mortality at 100 µg/mL of 100%.
Work on CC(C)C12C=CC(C)(CC1)OO2 (stereo not drawn) [ASCARIDOLE] yielded a mortality at 100 µg/mL of 100%.
Work on C=C(C)[C@H]1C[C@H]2OO[C@@H]1C=C2C yielded a mortality at 100 µg/mL of 100%.
C=C(C)[C@H]1C[C@H]2OO[C@@H]1C(OC(C)=O)=C2C showed a mortality at 100 µg/mL of 100%.
In the case of CC1=C[C@H]2OO[C@@H]1C[C@@H]2C(C)C, the mortality at 100 µg/mL is reported as 100%.
In the case of CC(C)C12C=CC(CO)(CC1)OO2 (stereo not drawn), the mortality at 100 µg/mL is reported as 100%.

Test system: Aphelenchoides besseyi
Experiment: Nematocidal activity against Aphelenchoides besseyi assessed as mortality at 200 ug/ml after 24 hr
Type: functional
Details: not given
Molecule CC(C)C12C=CC(C(=O)O)(CC1)OO2 (stereo not drawn) has a mortality at 200 µg/mL of 100%.
Molecule COC(=O)C12C=CC(C(C)C)(CC1)OO2 (stereo not drawn) has a mortality at 200 µg/mL of 100%.
With CC(C)C12C=CC(C)(CC1)OO2 (stereo not drawn) [ASCARIDOLE] the mortality at 200 µg/mL was < 50%.
In the case of C=C(C)[C@H]1C[C@H]2OO[C@@H]1C(OC(C)=O)=C2C, the mortality at 200 µg/mL is reported as < 50%.
For CC(C)C12C=CC(CO)(CC1)OO2 (stereo not drawn), the mortality at 200 µg/mL was < 50%.

Test system: not listed separately
Experiment: Toxicity in Rattus norvegicus (rat)
Type: organism-based
Details: in vivo, read-out: LC50 (the source's name)
Work on CNC(=O)O/N=C(\SC)C(=O)N(C)C [OXAMYL] yielded an LD50 of 3.1 mg/kg.
